Laboratory results published in US8846710B2, “Method of preferentially inducing the biosynthesis of interferon” (3M Innovative Properties Company, priority 2005, dated 2014).

Test system: tumor necrosis factor (α) (TNF-α)
Test: Cytokine induction in human cells: TNF-α secreted by PBMC into culture media (ORIGEN M-Series immunoassay)
Format: cell-based
Set-up: key to Maximal Response (pg/mL) TNF / Maximal Response TNF: If any negative values result from background subtraction, the reading is reported as “*”, and is noted as not reliably detectable
Conditions: Table 11; human PBMC; median where tested in more than one experiment
Method in brief: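 Secreted TNF-α (pg/mL) was quantified by ORIGEN M-Series immunoassay after 18 to 24 hours culture at 37° C of human PBMC (2×10^6 cells/mL final) with test compound (usually 30-0.014 μM, 3-fold series, DMSO ≤1%). Values were corrected for DMSO or experimental background and a reference-compound ratio, giving a minimum effective concentration.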

| Structure (SMILES) | Minimum Effective Concentration TNF |
| --- | --- |
| Cc1nc2c(N)nc3ccccc3c2n1CCCNC(=O)NC(C)C [Analog 81] | 10 µM |
| CCCc1nc2c(N)nc3ccccc3c2n1CCCNC(=O)NC(C)C [Analog 82] | 1.11 µM |
| COCCc1nc2c(N)nc3ccccc3c2n1CCCNC(=O)NC(C)C [Analog 83] | 1.11 µM |
| Cc1nc2c(N)nc3ccccc3c2n1CCCN [Analog 84] | >30 µM |
| CCOCc1nc2c(N)nc3ccccc3c2n1CCCN [Analog 85] | 30 µM |
| COCCc1nc2c(N)nc3ccccc3c2n1CCCN [Analog 86] | 1.11 µM |
| Cc1nc2c(N)nc3ccccc3c2n1CCCNC(=O)N1CCOCC1 [Analog 87] | 30 µM |
| CCOCc1nc2c(N)nc3ccccc3c2n1CCCNC(=O)N1CCOCC1 [Analog 88] | 1.11 µM |
| COCCc1nc2c(N)nc3ccccc3c2n1CCCNC(=O)N1CCOCC1 [Analog 89] | 0.014 µM |
| CCc1nc2c(N)nc3ccccc3c2n1CC(C)(C)CNC(=O)Nc1ccccc1 [Analog 90] | 0.12 µM |
| CCOCc1nc2c(N)nc3ccccc3c2n1CC(C)(C)CNC(=O)Nc1ccccc1 [Analog 91] | 0.04 µM |
| COCCc1nc2c(N)nc3ccccc3c2n1CC(C)(C)CNC(=O)Nc1ccccc1 [Analog 92] | 0.04 µM |
| CCOCc1nc2c(N)nc3ccccc3c2n1CC(C)(C)NC(=O)C1CCCCC1 [Analog 93] | 0.37 µM |
| COCc1nc2c(N)nc3ccccc3c2n1CC(C)(C)CNC(=O)c1ccccc1 [Analog 94] | 3.33 µM |
| COCOCc1nc2c(N)nc3ccccc3c2n1CC(C)(C)CNC(=O)c1ccccc1 [Analog 95] | 0.37 µM |
| COCCc1nc2c(N)nc3ccccc3c2n1CC(C)(C)CNC(=O)c1ccccc1 [Analog 96] | 0.014 µM |
| CCCCNC(=O)NCCCn1c(COCC)nc2c(N)nc3ccccc3c21 [Analog 97] | 3.33 µM |
| CCCCNC(=O)NCCCn1c(CCOC)nc2c(N)nc3ccccc3c21 [Analog 98] | 0.04 µM |
| CCc1nc2c(N)nc3ccccc3c2n1CC(C)(C)CN [Analog 99] | 0.37 µM |

Same assay, conditions: Table 11; human PBMC; median; * = TNF below experimental background of 40 pg/mL

| Structure (SMILES) | Maximal Response TNF |
| --- | --- |
| Cc1nc2c(N)nc3ccccc3c2n1CCCNC(=O)NC(C)C [Analog 81] | 490 pg/mL |
| CCCc1nc2c(N)nc3ccccc3c2n1CCCNC(=O)NC(C)C [Analog 82] | 3740 pg/mL |
| COCCc1nc2c(N)nc3ccccc3c2n1CCCNC(=O)NC(C)C [Analog 83] | 1259 pg/mL |
| Cc1nc2c(N)nc3ccccc3c2n1CCCN [Analog 84] | * |
| CCOCc1nc2c(N)nc3ccccc3c2n1CCCN [Analog 85] | 411 pg/mL |
| COCCc1nc2c(N)nc3ccccc3c2n1CCCN [Analog 86] | 1674 pg/mL |
| Cc1nc2c(N)nc3ccccc3c2n1CCCNC(=O)N1CCOCC1 [Analog 87] | 463 pg/mL |
| CCOCc1nc2c(N)nc3ccccc3c2n1CCCNC(=O)N1CCOCC1 [Analog 88] | 1379 pg/mL |
| COCCc1nc2c(N)nc3ccccc3c2n1CCCNC(=O)N1CCOCC1 [Analog 89] | 6169 pg/mL |
| CCc1nc2c(N)nc3ccccc3c2n1CC(C)(C)CNC(=O)Nc1ccccc1 [Analog 90] | 2098 pg/mL |
| CCOCc1nc2c(N)nc3ccccc3c2n1CC(C)(C)CNC(=O)Nc1ccccc1 [Analog 91] | 3618 pg/mL |
| COCCc1nc2c(N)nc3ccccc3c2n1CC(C)(C)CNC(=O)Nc1ccccc1 [Analog 92] | 6449 pg/mL |
| CCOCc1nc2c(N)nc3ccccc3c2n1CC(C)(C)NC(=O)C1CCCCC1 [Analog 93] | 12173 pg/mL |
| COCc1nc2c(N)nc3ccccc3c2n1CC(C)(C)CNC(=O)c1ccccc1 [Analog 94] | 9721 pg/mL |
| COCOCc1nc2c(N)nc3ccccc3c2n1CC(C)(C)CNC(=O)c1ccccc1 [Analog 95] | 1820 pg/mL |
| COCCc1nc2c(N)nc3ccccc3c2n1CC(C)(C)CNC(=O)c1ccccc1 [Analog 96] | 1812 pg/mL |
| CCCCNC(=O)NCCCn1c(COCC)nc2c(N)nc3ccccc3c21 [Analog 97] | 963 pg/mL |
| CCCCNC(=O)NCCCn1c(CCOC)nc2c(N)nc3ccccc3c21 [Analog 98] | 6169 pg/mL |
| CCc1nc2c(N)nc3ccccc3c2n1CC(C)(C)CN [Analog 99] | 13846 pg/mL |

Test system: interferon (α) (IFN-α)
Test: Cytokine induction in human cells: IFN-α secreted by PBMC into culture media (ELISA)
Format: cell-based
Conditions: Table 11; human PBMC; median where tested in more than one experiment
Method in brief: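 IFN-α secreted by density-gradient-isolated PBMC (final 2×10^6 cells/mL) was quantified by ELISA after 18–24 h compound exposure at 37 °C, typically 30-0.014 μM in 3-fold steps with ≤1% DMSO. Readings corrected for background and reference-compound variability; lowest concentration above usually 20 pg/mL reported, plus maximal response (pg/mL).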

| Structure (SMILES) | Maximal Response IFN | Minimum Effective Concentration IFN |
| --- | --- | --- |
| Cc1nc2c(N)nc3ccccc3c2n1CCCNC(=O)NC(C)C [Analog 81] | 1134 pg/mL | 3.33 µM |
| CCCc1nc2c(N)nc3ccccc3c2n1CCCNC(=O)NC(C)C [Analog 82] | 6571 pg/mL | 0.12 µM |
| COCCc1nc2c(N)nc3ccccc3c2n1CCCNC(=O)NC(C)C [Analog 83] | 1289 pg/mL | 0.12 µM |
| Cc1nc2c(N)nc3ccccc3c2n1CCCN [Analog 84] | 421 pg/mL | 3.33 µM |
| CCOCc1nc2c(N)nc3ccccc3c2n1CCCN [Analog 85] | 1325 pg/mL | 0.12 µM |
| COCCc1nc2c(N)nc3ccccc3c2n1CCCN [Analog 86] | 3433 pg/mL | 0.04 µM |
| Cc1nc2c(N)nc3ccccc3c2n1CCCNC(=O)N1CCOCC1 [Analog 87] | 4843 pg/mL | 0.37 µM |
| CCOCc1nc2c(N)nc3ccccc3c2n1CCCNC(=O)N1CCOCC1 [Analog 88] | 6670 pg/mL | 0.12 µM |
| COCCc1nc2c(N)nc3ccccc3c2n1CCCNC(=O)N1CCOCC1 [Analog 89] | 5915 pg/mL | 0.014 µM |
| CCc1nc2c(N)nc3ccccc3c2n1CC(C)(C)CNC(=O)Nc1ccccc1 [Analog 90] | 922 pg/mL | 0.014 µM |
| CCOCc1nc2c(N)nc3ccccc3c2n1CC(C)(C)CNC(=O)Nc1ccccc1 [Analog 91] | 1133 pg/mL | 0.014 µM |
| COCCc1nc2c(N)nc3ccccc3c2n1CC(C)(C)CNC(=O)Nc1ccccc1 [Analog 92] | 570 pg/mL | 0.014 µM |
| CCOCc1nc2c(N)nc3ccccc3c2n1CC(C)(C)NC(=O)C1CCCCC1 [Analog 93] | 1052 pg/mL | 0.37 µM |
| COCc1nc2c(N)nc3ccccc3c2n1CC(C)(C)CNC(=O)c1ccccc1 [Analog 94] | 2518 pg/mL | 1.11 µM |
| COCOCc1nc2c(N)nc3ccccc3c2n1CC(C)(C)CNC(=O)c1ccccc1 [Analog 95] | 832 pg/mL | 0.04 µM |
| COCCc1nc2c(N)nc3ccccc3c2n1CC(C)(C)CNC(=O)c1ccccc1 [Analog 96] | 2133 pg/mL | 0.014 µM |
| CCCCNC(=O)NCCCn1c(COCC)nc2c(N)nc3ccccc3c21 [Analog 97] | 827 pg/mL | 0.37 µM |
| CCCCNC(=O)NCCCn1c(CCOC)nc2c(N)nc3ccccc3c21 [Analog 98] | 5915 pg/mL | 0.014 µM |
| CCc1nc2c(N)nc3ccccc3c2n1CC(C)(C)CN [Analog 99] | 405 pg/mL | 0.04 µM |
